pIC50: −log10 of the molar value. Where a name gives a salt, the structure may show the parent alone.
Experiments:
5-HT2 = biological target: T1, 5-HT2 (Rattus norvegicus, UniProt P14842); assay: Receptor binding in vitro, 5-HT2 (3H-ketanserin displacement)
T1 construct: from tissue; host or cells: rat brain: frontal cortex, striatum
Protocol: (§1) Compounds of the general formula (I) were tested for binding to 5-HT receptors and compared with known ligands by the following procedure:
(§2) Rat brain tissue (as specified in the table hereinafter) was homogenized using a Polytron homogenizer. The final pellet was resuspended in 125 vol (tissue wet weight) of buffer.
(§3) In all assays incubation was carried out for 10 min at 37° C.
(§4) Detailed conditions for the receptor binding assay in vitro are tabulated below.

5-HT1B = biological target: T2, 5-HT1B (Rattus norvegicus, UniProt P28564); assay: Receptor binding in vitro, 5-HT1B (3H-5-HT displacement, with 50 nM 8-OH-DPAT)
T2 construct: from tissue; host or cells: rat brain: frontal cortex, hippocampus
T2 sequence (P28564 whole entry): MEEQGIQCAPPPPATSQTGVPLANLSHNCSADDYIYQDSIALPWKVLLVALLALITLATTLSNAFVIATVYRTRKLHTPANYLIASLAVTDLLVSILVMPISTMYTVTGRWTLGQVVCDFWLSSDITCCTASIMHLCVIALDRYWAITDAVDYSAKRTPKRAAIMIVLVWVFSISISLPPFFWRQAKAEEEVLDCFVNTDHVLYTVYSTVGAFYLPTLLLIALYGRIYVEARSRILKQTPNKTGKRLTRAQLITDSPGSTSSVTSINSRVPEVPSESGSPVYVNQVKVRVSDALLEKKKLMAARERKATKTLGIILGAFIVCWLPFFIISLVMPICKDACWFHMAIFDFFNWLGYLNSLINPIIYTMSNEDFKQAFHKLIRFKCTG
Protocol: as §1, §2, §3
Labelling of the 5-HT1B receptor was complicated by the fact that the available ligand ^3 H-5-HT is nonselective.
as §4

Adenylatcyclase = assay: Adenylatcyclase; assay type: biochemical
5-HT1A = biological target: T3, 5-HT1A (Rattus norvegicus, UniProt P19327); assay: Receptor binding in vitro, 5-HT1A (3H-8OH-DPAT displacement); details: ligand 3H-8OH-DPAT 2 nM; rat frontal cortex, hippocampus
T3 construct: from tissue; host or cells: rat brain: frontal cortex, hippocampus
T3 sequence (P19327 1-422): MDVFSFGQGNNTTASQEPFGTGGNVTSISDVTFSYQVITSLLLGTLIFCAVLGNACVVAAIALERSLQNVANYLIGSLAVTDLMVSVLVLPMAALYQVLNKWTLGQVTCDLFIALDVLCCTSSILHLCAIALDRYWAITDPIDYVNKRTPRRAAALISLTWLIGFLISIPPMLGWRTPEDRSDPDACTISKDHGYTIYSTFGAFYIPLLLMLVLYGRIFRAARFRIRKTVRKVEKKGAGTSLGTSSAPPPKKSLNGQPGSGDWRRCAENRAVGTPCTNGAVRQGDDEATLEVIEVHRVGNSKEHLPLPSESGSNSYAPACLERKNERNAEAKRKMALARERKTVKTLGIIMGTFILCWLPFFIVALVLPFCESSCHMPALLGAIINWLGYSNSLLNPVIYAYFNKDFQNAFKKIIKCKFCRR
Protocol: as §1, §2, §3, §4

5-HT1 recognition sites = details: background; Ann. Reports Med. Chem. 21 (1986), 42-43; cited from earlier work
5-HT1A receptors = details: background; cited from earlier work
5-HT2 receptor subtype = details: background; cited from earlier work

T1 sequence (P14842 whole entry): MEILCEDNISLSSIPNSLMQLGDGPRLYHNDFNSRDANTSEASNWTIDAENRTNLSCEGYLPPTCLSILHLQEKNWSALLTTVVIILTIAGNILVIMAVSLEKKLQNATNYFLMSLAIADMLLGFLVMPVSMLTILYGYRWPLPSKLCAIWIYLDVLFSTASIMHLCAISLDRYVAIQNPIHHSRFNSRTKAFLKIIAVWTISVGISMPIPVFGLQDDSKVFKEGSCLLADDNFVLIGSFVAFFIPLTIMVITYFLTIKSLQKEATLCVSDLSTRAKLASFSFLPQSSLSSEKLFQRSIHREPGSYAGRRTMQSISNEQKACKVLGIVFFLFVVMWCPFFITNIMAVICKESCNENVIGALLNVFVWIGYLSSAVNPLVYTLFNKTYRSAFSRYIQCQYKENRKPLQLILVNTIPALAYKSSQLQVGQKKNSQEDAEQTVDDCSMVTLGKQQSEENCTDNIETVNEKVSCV

Row | pIC50 (5-HT2) | pIC50 (5-HT1B) | pIC50 (Adenylatcyclase) | pIC50 (5-HT1A) | SMILES | affinity for 5-HT1 recognition sites (in words) (5-HT1 recognition sites) | discrimination between the 5-HT1A and 5-HT1B receptor subtypes (in words) (5-HT1 recognition sites) | affinity for 5-HT1A receptors (in words) (5-HT1A receptors) | affinity for the 5-HT2 receptor subtype (in words) (5-HT2 receptor subtype)
1 | < 6.00 | < 6.00 | 7.64 | 8.10 | COc1ccc2[nH]cc(SCCNCCCCN3C(=O)C4C5C=CC(C6CC56)C4C3=O)c2c1 (stereo not drawn) [Example 10] |  |  |  | 
2 | < 6.00 | 6.81 | 6.85 | 7.70 | COc1ccc2[nH]cc(SCCNCCCCN3C(=O)c4ccccc4C3=O)c2c1 [Example 9, 1-(4-Phthalimidobutyl-1-amino)-2-(5-methoxy-3-indolylthio)-ethane, oxalate] |  |  |  | 
3 | < 6.00 | < 6.00 | 8.74 | 9.22 | COc1ccc2[nH]cc(OCCNCCCCN3C(=O)CC4(CCCC4)CC3=O)c2c1 [Example 23, 1-(4-(7,9-Dioxo-8-azaspiro[4,5]decan-8-yl)butyl-1-amino)-2-(5-methoxy-3-indolyloxy)-ethane, oxalate] |  |  |  | 
4 | 6.21 | 6.63 | 8.00 | 7.40 | O=C1CC2(CCCC2)CC(=O)N1CCCCNCCSc1c[nH]c2ccccc12 [Example 3, 1-(4-(7,9-Dioxo-8-azaspiro[4,5]decan-8-yl)butyl-1-amino)2-(3-indolylthio)-ethane, oxalate] |  |  |  | 
5 | < 6.00 | < 6.00 | 7.70 | 7.47 | O=C1c2ccccc2S(=O)(=O)N1CCCCNCCSc1c[nH]c2ccccc12 [Example 6, 1-(4-(o-Sulfobenzimido)butyl-1-amino)-2-(3-indolylthio)ethane, oxalate] |  |  |  | 

The remaining lines, values behind:

Row | SMILES | pIC50 (5-HT2) | pIC50 (5-HT1B) | pIC50 (Adenylatcyclase) | pIC50 (5-HT1A) | affinity for 5-HT1 recognition sites (in words) (5-HT1 recognition sites) | discrimination between the 5-HT1A and 5-HT1B receptor subtypes (in words) (5-HT1 recognition sites) | affinity for 5-HT1A receptors (in words) (5-HT1A receptors) | affinity for the 5-HT2 receptor subtype (in words) (5-HT2 receptor subtype)
6 | COc1ccc2[nH]cc(SCCNCCCCN3C(=O)CC4(CCCC4)CC3=O)c2c1 [Example 8, 1-(4-(7,9-Dioxo-8-azaspiro[4,5]decan-8-yl)butyl-1-amino)-2-(5-methoxy-3-indolylthio)-ethane, oxalate] | < 6.00 | < 6.00 | 7.52 | 7.48 |  |  |  | 
7 | COc1ccc2[nH]cc(OCCNCCCCN3C(=O)C4C5C=CC(C6C=CC65)C4C3=O)c2c1 (stereo not drawn) [Example 24, 1-(4-(1,3-Dioxo-4,7-etheno-1,3,3a,4,4a,6a,7,7a-octahydro-2H-cyclobut[f]isoindol-2-yl)butyl-1-amino)-2-(5-methoxy-3-indolyloxy)-ethane, oxalate] | < 6.00 | < 6.00 | 8.40 | 8.16 |  |  |  | 
8 | COc1ccc2[nH]cc(SCCNCCCCN3C(=O)C4CC=CCC4C3=O)c2c1 (stereo not drawn) [Example 12, 1-(4-(Cis-4-cyclohexen-1,2-dicarboximido)butyl-1-amino)-2-(5-methoxy-3-indolylthio)-ethane, oxalate] | < 6.00 | < 6.00 | 6.62 | 7.77 |  |  |  | 
9 | CC1(C)CC(=O)N(CCCCN2CCN(c3ncccn3)CC2)C(=O)C1 [gepirone, reference compound] | < 6.00 |  | 6.00 |  |  |  |  | 
10 | COc1ccc2[nH]cc(C3=CCNCC3)c2c1 [RU 24969] |  |  |  |  | high affinity | only limited capacity to discriminate |  | 
11 | CCCN(CCC)C1CCc2cccc(O)c2C1 (stereo not drawn) [Example 8-OH-DPAT, 8-hydroxy-2-(di-n-propylamino)tetralin, reference compound] | < 6.00 |  | 7.10 |  |  |  | binds with high affinity | 
12 | O=C(c1ccc(F)cc1)C1CCN(CCn2c(=O)[nH]c3ccccc3c2=O)CC1 [ketanserin] |  |  |  |  |  |  |  | high affinity
13 | O=C1c2ccccc2S(=O)(=O)N1CCCCN1CCN(c2ncccn2)CC1 [ipsapirone, reference compound] | < 6.00 | < 6.00 | 6.07 | 7.60 |  |  |  | 
14 | O=C1CC2(CCCC2)CC(=O)N1CCCCN1CCN(c2ncccn2)CC1 [buspirone, reference compound] |  |  | 6.90 |  |  |  |  | 

— US5227488A, “Aza spiro decane and use thereof in treating CNS disorders” (Novo Nordisk A/S, priority 1989, dated 1993)
